Results on eleven compounds are retold here after patent publication US10875855B2 (priority 2011, dated 2020).

SMILES strings stand for the structures. Like-named read-outs stand apart in the source and are kept apart here.

For test [1], the system named is influenza A virus (A/PR/8/34). The test is described as follows: MDCK cytopathic effect (CPE) cell protection assay, ATP detection. The class given is cell-based. In general terms: Protection from cytopathic effect is a common read-out in antiviral testing.
Test [2] has as its system influenza A virus (A/PR/8/34). The test is described as follows: microbe, parasite or virus in culture. The class given is cell-based.
[3] abbreviates: Influenza A virus, PR/8, MDCK, 72 h, Table 1, MDCK cells, A/PR/8/34, 72 hours, 50% cell protection, mean all, class symbol, read-out: MDCK IC50.
The mark [4] stands for this setting: Influenza A virus, PR/8, Table 1, mean all, class symbol, read-out: bDNA EC99.
Setting [5] is: Influenza A virus, PR/8, Table 1, viral RNA 50% of control wells, mean all, class symbol, read-out: bDNA EC50.
[6] abbreviates: Table 1, MDCK cells, A/PR/8/34, 72 hours, 50% cell protection, mean all, class symbol, read-out: MDCK IC50.
Setting [7] is: Table 1, viral RNA 50% of control wells, mean all, class symbol, read-out: bDNA EC50.
The mark [8] stands for this setting: Table 1, mean all, class symbol.

One may read the IC50 as the concentration at which inhibition is half-maximal. By EC99 is commonly meant the concentration at which the effect reaches the 99% level. As usually defined, the EC50 is the midpoint of the concentration-response curve. `CC(C)(C)[C@@H](CC(=O)O)Nc1nc(-c2n[nH]c3ncc(F)cc23)c(F)cc1F` [Compound 6, (R)-3-((3,5-difluoro-6-(5-fluoro-1H-pyrazolo[3,4-b]pyridin-3-yl)pyridin-2-yl)amino)-4,4-dimethylpentanoic acid]: the IC50 in test [1] (setting [3]) is less than 300 nM; in test [1] (Influenza A virus, PR/8, MDCK, exemplary data, MDCK cell protection, read-out: IC50) it was 4 nM. Moreover, the 99% effect concentration (EC99) in test [2] (setting [4]) is less than 0.3 µM; in test [2] (exemplary data, bDNA), 0.082 µM. In addition, the EC50 in test [2] (setting [5]) was less than 300 nM; in test [2] (Influenza A virus, PR/8, exemplary data, bDNA, read-out: EC50) it was 15 nM.

Take `CC(C)(C)[C@@H](CC(=O)O)Nc1nc(-c2c[nH]c3ncc(F)cc23)c(C#N)cc1F` [Compound 7, (R)-3-(5-cyano-3-fluoro-6-(5-fluoro-1H-pyrrolo[2,3-b]pyridin-3-yl)pyridin-2-ylamino)-4,4-dimethylpentanoic acid]: the IC50 in test [1] (setting [3]) was less than 300 nM. Moreover, in test [2] (setting [4]), the EC99 is less than 0.3 µM. For the same compound, the EC50 in test [2] (setting [5]) is less than 300 nM.

Turning to `CC1([C@@H](CC(=O)O)Nc2nc(-c3c[nH]c4ncc(F)cc34)c(C#N)cc2F)CCCC1` [Compound 8, (R)-3-(5-cyano-3-fluoro-6-(5-fluoro-1H-pyrrolo[2,3-b]pyridin-3-yl)pyridin-2-ylamino)-3-(1-methylcyclopentyl)propanoic acid], the IC50 in test [1] (setting [6]) is less than 300 nM. Besides, the EC50 in test [2] (setting [7]) was less than 300 nM.

`CC(C)(C)[C@@H](CS(=O)(=O)O)Nc1nc(-c2c[nH]c3ncc(Cl)cc23)ncc1F` [Compound 10, (S)-2-((2-(5-chloro-1H-pyrrolo[2,3-b]pyridin-3-yl)-5-fluoropyrimidin-4-yl)amino)-3,3-dimethylbutane-1-sulfonic acid]: the IC50 in test [1] (setting [3]) was less than 300 nM. Moreover, in test [2] (setting [4]), the EC99 is less than 0.3 µM. The EC50 in test [2] (setting [5]) is less than 300 nM.

Turning to `CC(C)(C)[C@@H](CS(=O)(=O)O)Nc1nc(-c2c[nH]c3ncc(F)cc23)ncc1F` [Compound 11, (S)-2-(5-fluoro-2-(5-fluoro-1H-pyrrolo[2,3-b]pyridin-3-yl)pyrimidin-4-ylamino)-3,3-dimethylbutane-1-sulfonic acid], the IC50 in test [1] (setting [3]) is less than 300 nM. Moreover, in test [2] (setting [4]), the EC99 is less than 0.3 µM. For the same compound, in test [2] (setting [5]), the EC50 is less than 300 nM.

Take `CC1(C(CC(=O)O)Nc2nc(-c3c[nH]c4ncc(F)cc34)c(C#N)cc2F)CCCC1` (centres unmarked) [Compound 13]: in test [1] (setting [3]), the IC50 was less than 300 nM. Also, in test [2] (setting [4]), the 99% effect concentration (EC99) was less than 0.3 µM. In addition, the EC50 in test [2] (setting [5]) is less than 300 nM.

For the compound `CC1([C@@H](CC(=O)O)Nc2nc(-c3c[nH]c4ncc(F)cc34)ncc2F)CCCC1` [Compound 14], the IC50 in test [1] (setting [3]) was less than 300 nM. The EC99 in test [2] (setting [4]) was less than 0.3 µM. Moreover, the EC50 in test [2] (setting [5]) was less than 300 nM.

Regarding `CC1([C@H](CC(=O)O)Nc2nc(-c3c[nH]c4ncc(F)cc34)ncc2F)CCCC1` [Compound 15], the IC50 in test [1] (setting [3]) is 300 to 3300 nM. Besides, the EC99 in test [2] (setting [4]) was more than 3.3 µM. In addition, the EC50 in test [2] (setting [5]) was 300 to 3300 nM.

As to `CCC(C)(C)C(CC(=O)O)Nc1nc(-c2c[nH]c3ncc(F)cc23)ncc1F` (centres unmarked) [Compound 16, 3-((5-fluoro-2-(5-fluoro-1H-pyrrolo[2,3-b]pyridin-3-yl)pyrimidin-4-yl)amino)-4,4-dimethylhexanoic acid], the IC50 in test [1] (setting [3]) is less than 300 nM. In test [2] (setting [5]), the EC50 was less than 300 nM. The “bDNA EC99 (uM)” value in test [2] (setting [8]) is reported as “A (EC99 (mean all)<0.3 μM)”.

`CCC(C)(C)C(CC(=O)O)Nc1nc(-c2c[nH]c3ncc(F)cc23)ncc1F` (centres unmarked) [Compound 17, 3-((5-fluoro-2-(5-fluoro-1H-pyrrolo[2,3-b]pyridin-3-yl)pyrimidin-4-yl)amino)-4,4-dimethylhexanoic acid]: the half-maximal inhibitory concentration (IC50) in test [1] (setting [6]) was 300 to 3300 nM. Also, in test [2] (setting [8]), the “bDNA EC99 (uM)” value is recorded as “C (EC99 (mean all)>3.3 μM)”. Moreover, in test [2] (setting [7]), the EC50 was in the range of 300 to 3300 nM.

Consider `CCC(C)(C)C(CC(=O)O)Nc1nc(-c2c[nH]c3ncc(F)cc23)c(C#N)cc1F` (centres unmarked) [Compound 18, 3-[[5-cyano-3-fluoro-6-(5-fluoro-1H-pyrrolo[2,3-b]pyridin-3-yl)-2-pyridyl]amino]-4,4-dimethyl-hexanoic acid], for which the IC50 in test [1] (setting [3]) is less than 300 nM. Moreover, the EC99 in test [2] (setting [4]) is less than 0.3 µM. Moreover, in test [2] (setting [5]), the EC50 is less than 300 nM.
